Assay results reported in US11655216B2 (priority 2016, dated 2023).
Where two headings read alike, the source gives them in different places.

What was measured:
[1] = molecular target: T1, glutathione-S-transferase (GST) tagged LXRbeta LBD (ligand binding domain) (Homo sapiens, UniProt P55055); experiment: LanthaScreen TR-FRET Liver X Receptor Coactivator Assay, LXR beta; type: biochemical; conditions: for EC50: LXR beta IP, potency (Inflection Point), compound-induced co-activator recruitment, TR-FRET; for Emax: read-out: LXR beta actiivty at max dose, efficacy (% Emax) in relation to reference dual agonist T0901317
T1 construct: purchased Invitrogen pv4658
T1 sequence (P55055 222-460 limits assumed): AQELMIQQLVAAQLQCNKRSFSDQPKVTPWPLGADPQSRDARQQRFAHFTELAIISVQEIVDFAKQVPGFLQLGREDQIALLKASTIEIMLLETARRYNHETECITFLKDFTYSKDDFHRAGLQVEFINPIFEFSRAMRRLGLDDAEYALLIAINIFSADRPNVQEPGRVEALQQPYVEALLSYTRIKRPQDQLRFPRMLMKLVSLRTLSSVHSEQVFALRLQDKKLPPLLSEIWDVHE
In short: (§1)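 LXR alpha- or beta-LBD added to test compounds, then fluorescein-labelled coactivator peptide plus terbium anti-GST antibody. After incubation at room temperature, TR-FRET read on a filter-based plate reader.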

[2] = molecular target: T2, glutathione-S-transferase (GST) tagged LXRalpha LBD (ligand binding domain) (Homo sapiens, UniProt Q13133); experiment: biochemical
T2 construct: purchased Invitrogen pv4655
T2 sequence (Q13133 209-447 limits assumed): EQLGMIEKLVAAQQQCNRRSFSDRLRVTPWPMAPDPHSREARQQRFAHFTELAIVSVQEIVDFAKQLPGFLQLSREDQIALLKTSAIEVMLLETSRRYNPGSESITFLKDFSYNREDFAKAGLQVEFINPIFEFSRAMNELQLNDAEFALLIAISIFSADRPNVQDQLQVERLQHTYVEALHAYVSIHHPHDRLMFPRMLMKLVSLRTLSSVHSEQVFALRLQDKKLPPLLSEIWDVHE
In short: as §1

[3] = LXR alpha IP, potency (Inflection Point), compound-induced co-activator recruitment, TR-FRET
[4] = read-out: LXR alpha actiivty at max dose, efficacy (% Emax) in relation to reference dual agonist T0901317
[5] = potency (Inflection Point), compound-induced co-activator recruitment, TR-FRET, read-out: LXR alpha IP
[6] = efficacy (% Emax) in relation to reference dual agonist T0901317, read-out: LXR alpha actiivty at max dose
[7] = potency (Inflection Point), compound-induced co-activator recruitment, TR-FRET

| EC50 [2, 3] | EC50 ([2]; LXR alpha IP) | Emax ([2]; read-out: LXR alpha actiivty at max dose) | SMILES | EC50 [1] | Emax [1] | Emax [2, 4] | EC50 [2, 5] | Emax [2, 6] | LXR alpha IP [2, 7] |
| --- | --- | --- | --- | --- | --- | --- | --- | --- | --- |
| 231 nM | – | – | COc1ccccc1[C@@](O)(C(=O)N1CCC2(CC1)C[C@@H]2CCCOc1ccc(C(=O)N(C)C)c(Cl)c1)C(F)(F)F (single isomer, unassigned) [Example 14-5, 2-chloro-N,N-dimethyl-4-(3-((S or R)-6-((R or S)-3,3,3-trifluoro-2-hydroxy-2-(2-methoxyphenyl)propanoyl)-6-azaspiro[2.5]octan-1-yl)propoxy)benzamide] | 10 nM | 118% | 50% | – | – | – |
| 162 nM | – | – | COc1cccc([C@@](O)(C(=O)N2CCC3(CC2)C[C@@H]3CCCOc2ccc(C(=O)N(C)C)c(Cl)c2)C(F)(F)F)c1 (single isomer, unassigned) [Example 14-6, 2-chloro-N,N-dimethyl-4-(3-((S or R)-6-((R or S)-3,3,3-trifluoro-2-hydroxy-2-(3-methoxyphenyl)propanoyl)-6-azaspiro[2.5]octan-1-yl)propoxy)benzamide] | 6 nM | 116% | 23% | – | – | – |
| 186 nM | – | – | COc1cccc([C@](O)(C(=O)N2CCC3(CC2)C[C@@H]3CCCOc2ccc(C(=O)N(C)C)c(Cl)c2)C(F)(F)F)c1 (single isomer, unassigned) [Example 14-7, 2-chloro-N,N-dimethyl-4-(3-((S or R)-6-((S or R)-3,3,3-trifluoro-2-hydroxy-2-(3-methoxyphenyl)propanoyl)-6-azaspiro[2.5]octan-1-yl)propoxyl)benzamide] | 9 nM | 100% | 46% | – | – | – |
| – | 506 nM | 28% | CN(C)C(=O)c1ccc(OCCC[C@H]2CC23CCN(C(=O)[C@](O)(c2ccccc2)C(F)(F)F)CC3)nc1Cl (single isomer, unassigned) [Example 15-1, 2-chloro-N,N-dimethyl-6-(3-((S or R)-6-((R or S)-3,3,3-trifluoro-2-hydroxy-2-phenylpropanoyl)-6-azaspiro[2.5]octan-1-yl)propoxy)nicotinamide] | 19 nM | 88% | – | – | – | – |
| – | – | – | CN(C)C(=O)c1ccc(OCCC[C@@H]2CC23CCN(C(=O)[C@@](O)(c2ccccc2)C(F)(F)F)CC3)nc1Cl (single isomer, unassigned) [Example 15-2, 2-chloro-N,N-dimethyl-6-(3-((R or S)-6-((S or R)-3,3,3-trifluoro-2-hydroxy-2-phenylpropanoyl)-6-azaspiro[2.5]octan-1-yl)propoxy)nicotinamide] | 65 nM | 115% | 32% | 654 nM | – | – |
| 1630 nM | – | – | CN(C)C(=O)c1ccc(OCC2(CC3CCN(C(=O)C(O)(c4ccccc4)C(F)(F)F)CC3)CC2)cc1Cl (single isomer, unassigned) [Example 17-1, (R or S)-2-chloro-N,N-dimethyl-4-((1-((1-(3,3,3-trifluoro-2-hydroxy-2-phenylpropanoyl)piperidin-4-yl)methyl)cyclopropyl)methoxy)benzamide] | 188 nM | 77% | 19% | – | – | – |
| – | – | – | CN(C)C(=O)c1ccc(OC(F)(F)CCCC2CCN(C(=O)C(O)(c3ccccc3)C(F)(F)F)CC2)cc1Cl (single isomer, unassigned) [Example 19-1, (R or S)-2-chloro-4-(1,1-difluoro-4-(1-(3,3,3-trifluoro-2-hydroxy-2-phenylpropanoyl)piperidin-4-yl)butoxy)-N,N-dimethylbenzamide] | 86 nM | 75% | – | 1170 nM | 23% | – |
| – | – | – | CN(C)C(=O)c1ccc(OCC(F)CCC2CCN(C(=O)C(O)(c3ccccc3)C(F)(F)F)CC2)cc1Cl (single isomer, unassigned) [Example 20-1, 2-chloro-4-(2-fluoro-4-(1-((R or S)-3,3,3-trifluoro-2-hydroxy-2-phenylpropanoyl)piperidin-4-yl)butoxy)-N,N-dimethylbenzamide] | 80 nM | 72% | – | 1430 nM | 26% | – |
| – | – | – | CN(C)C(=O)c1ccc(OC[C@@H](F)CCC2CCN(C(=O)[C@](O)(c3ccccc3)C(F)(F)F)CC2)cc1Cl (single isomer, unassigned) [Example 20-2, 2-chloro-4-((S or R)-2-fluoro-4-(1-((R or S)-3,3,3-trifluoro-2-hydroxy-2-phenylpropanoyl)piperidin-4-yl)butoxy)-N,N-dimethylbenzamide] | 71 nM | 73% | 25% | 1490 nM | – | – |
| – | – | – | COc1cccc(C(O)(C(=O)N2CCC(C(F)CCCOc3ccc(C(=O)N(C)C)c(Cl)c3)CC2)C(F)(F)F)c1 (single isomer, unassigned) [Example 21-1, 2-chloro-4-(4-fluoro-4-(1-((R or S)-3,3,3-trifluoro-2-hydroxy-2-(3-methoxyphenyl)propanoyl)piperidin-4-yl)butoxy)-N,N-dimethylbenzamide] | 9 nM | 75% | – | 422 nM | 27% | – |
| – | – | – | COc1cccc(C(O)(C(=O)N2CCC(C(F)(F)CCCOc3ccc(C(=O)N(C)C)c(Cl)c3)CC2)C(F)(F)F)c1 (single isomer, unassigned) [Example 22-1, (R or S)-2-chloro-4-(4,4-difluoro-4-(1-(3,3,3-trifluoro-2-hydroxy-2-(3-methoxyphenyl)propanoyl)piperidin-4-yl)butoxy)-N,N-dimethylbenzamide] | 7 nM | 67% | – | 212 nM | 32% | – |
| – | – | – | CC(CCC1CCN(C(=O)[C@](O)(c2ccccc2)C(F)(F)F)CC1)COc1ccc(C(=O)N(C)C)c(Cl)c1 (single isomer, unassigned) [Example 23-1, 2-chloro-N,N-dimethyl-4-((R or S)-2-methyl-4-(1-((R or S)-3,3,3-trifluoro-2-hydroxy-2-phenylpropanoyl)piperidin-4-yl)butoxy)benzamide] | 24 nM | 74% | – | 436 nM | 23% | – |
| – | – | – | COc1cccc([C@](O)(C(=O)N2CCC(CC[C@H](C)COc3ccc(C(=O)N(C)C)c(Cl)c3)CC2)C(F)(F)F)c1 (single isomer, unassigned) [Example 23-2, 2-chloro-N,N-dimethyl-4-((S or R)-2-methyl-4-(1-((S or R)-3,3,3-trifluoro-2-hydroxy-2-(3-methoxyphenyl)propanoyl)piperidin-4-yl)butoxy)benzamide] | 19 nM | 53% | 0% | – | – | No IP |
| – | – | – | COc1cccc([C@@](O)(C(=O)N2CCC(CC[C@H](C)COc3ccc(C(N)=O)c(Cl)c3)CC2)C(F)(F)F)c1 (single isomer, unassigned) [Example 24-1, 2-chloro-4-((R or S)-2-methyl-4-(1-((S or R)-3,3,3-trifluoro-2-hydroxy-2-(3-methoxyphenyl)propanoyl)piperidin-4-yl)butoxy)benzamide] | 33 nM | 54% | – | – | 14% | No IP |

| SMILES | EC50 [2, 3] | EC50 ([2]; LXR alpha IP) | Emax ([2]; read-out: LXR alpha actiivty at max dose) | EC50 [1] | Emax [1] | Emax [2, 4] | EC50 [2, 5] | Emax [2, 6] | LXR alpha IP [2, 7] |
| --- | --- | --- | --- | --- | --- | --- | --- | --- | --- |
| COc1cccc(C(O)(C(=O)N2CCC(C3CC3(C)COc3ccc(C(=O)N(C)C)c(Cl)c3)CC2)C(F)(F)F)c1 (single isomer, unassigned) [Example 16-1, 2-chloro-N,N-dimethyl-4-((1-methyl-2-(1-((R or S)-3,3,3-trifluoro-2-hydroxy-2-(3-methoxyphenyl)propanoyl)piperidin-4-yl)cyclopropyl)methoxy)benzamide] | 955 nM | – | – | 66 nM | 84% | 18% | – | – | – |
| C[C@@H](CCC1CCN(C(=O)[C@](O)(c2cc(F)cc(F)c2)C(F)(F)F)CC1)COc1ccc(C(=O)N(C)C)c(Cl)c1 (single isomer, unassigned) [Example 23-3, 2-chloro-4-((S or R)-4-(1-((R or S)-2-(3,5-difluorophenyl)-3,3,3-trifluoro-2-hydroxypropanoyl)piperidin-4-yl)-2-methylbutoxy)-N,N-dimethylbenzamide] | 150 nM | – | – | 12 nM | 89% | 42% | – | – | – |
| CNC(=O)c1ccc(OC[C@@H](C)CCC2CCN(C(=O)[C@@](O)(c3cccc(OC)c3)C(F)(F)F)CC2)cc1Cl (single isomer, unassigned) [Example 23-4, 2-chloro-N-methyl-4-((S or R)-2-methyl-4-(1-((S or trifluoro-2-hydroxy-2-(3-methoxyphenyl)propanoyl)piperidin-4-yl)butoxy)benzamide] | 717 nM | – | – | 60 nM | 53% | 9% | – | – | – |
